Test results: US10233207B2, “Crystalline form of nicotinamide riboside” (W. R. Grace & Co.—Conn., priority 2014, dated 2019)

Experiments:
[1] = assay type: physicochemical
From the text: The instant crystalline Form I of nicotinamide riboside chloride may be provided in one of several different morphologies. For example, the crystalline material may exist in a morphology having a bulk density of about 0.25 to about 0.4 g/mL, or may exist in a morphology having a bulk density of about 0.40 to about 0.65 g/mL. The present disclosure also relates to mixtures of at least these two morphologies in any proportion. FIG. 3A depicts a Scanning Electron Microscopy (SEM) image of the inventive crystalline nicotinamide riboside chloride in a morphology having a bulk density of about 0.25 to about 0.4 g/mL, and FIG. 3B depicts a Scanning Electron Microscopy (SEM) image of the inventive crystalline nicotinamide riboside chloride in a morphology having a bulk density of about 0.40 to about 0.65 g/mL. […] This morphology also appears to provide the product with a slightly higher purity as well. Because of the purity, stability, and color variations in the other morphology (the morphology having a bulk density of about 0.40 to about 0.65 g/mL), in at least some instances a preference exists for the crystalline nicotinamide chloride having a bulk density of about 0.25 to about 0.4 g/mL as it appears to produce higher quality product with more consistency.

[2] = Hygroscopicity / Dynamic Vapor Sorption (DVS) moisture sorption isotherm; assay type: physicochemical
Procedure: Moisture sorption isotherms were collected on a DVS-1 system from Surface Measurement Systems UK Ltd. (London, UK) for both crystalline Form I of nicotinamide riboside chloride and for the amorphous form of nicotinamide riboside chloride. Sample sizes were between 9.7 and 14.3 mg of solid material. The relative humidity was started with an initial drying step going from 40% RH to 0% RH. Subsequently, the relative humidity was increased to 95% (sorption), decreased to 0% RH (desorption) and increased again to 95% RH (sorption). Weight equilibration was set per step with a holding time of 1 hour (10% relative humidity step). Individual samples sizes were 12.6568 mg for crystalline Form I and 9.6799 mg for the amorphous sample. FIG. 8A provides a DVS change in mass plot for a sample of the crystalline Form I of nicotinamide riboside chloride, and FIG. 8B provides a DVS isotherm plot for a sample of the crystalline Form I of nicotinamide riboside chloride. FIG. 9A provides a DVS change in mass plot for a sample of the amorphous form of nicotinamide riboside chloride, and FIG. 9B provides a DVS isotherm plot for a sample of the amorphous form of nicotinamide riboside chloride.
FIG. 10 provides a comparison of the sorption curve for crystalline Form I of nicotinamide riboside chloride with the sorption curve for the amorphous sample. […] Even at 70% relative humidity, the weight of the crystalline sample had not increased by more than about 1.0%. These characteristics of the crystalline Form I are advantageous for the handling of the material overall and represent the ability to remain stable over a greater range of working conditions relative to the amorphous form.

[3] = high-fat diet supplemented with nicotinamide riboside; cited from earlier work

NC(=O)c1ccc[n+]([C@@H]2O[C@H](CO)[C@@H](O)[C@H]2O)c1.[Cl-]
stability to degradation via oxygen or water absorption, compared with morphology of bulk density about 0.40 to about 0.65 g/mL [1]: more stable to degradation via oxygen or water absorption

3-carbamoyl-1-[(2R,3R,4S5R)-3,4-dihydroxy-5-(hydroxymethypoxolan-2-yl]-pyrin-1-ylium chloride
rate of water absorption compared with amorphous material ([2]; 0% to 60% relative humidity, sorption curve FIG. 10): much less prone to absorption at lower relative humidities than the amorphous material | weight increase of sample (water sorption) ([2]; 70% relative humidity): ≤ 1.0% | water uptake (water vapor sorption isotherm) ([2]; relative humidity of up to 60%): not more than 0.5 wt % | water uptake (water vapor sorption isotherm) ([2]; relative humidity of up to 70%): not more than 1.0 wt %

NC(=O)c1ccc[n+]([C@@H]2O[C@H](CO)[C@@H](O)[C@H]2O)c1 [nicotinamide riboside, Nicotinamide riboside]
less weight gained than mice on same high-fat diet without nicotinamide riboside [3]: 60%
